Assay [1] has as its target T1, S1PR2 (Homo sapiens, UniProt O95136).
T1 construct: expressed in transfected cells
Put plainly: S1PR2 binding assay (competition with radioactively labeled S1P, SpA). As to conditions: membranes from stable cell line over expressing S1PR2, SpA beads; read-out: S1P2 EC50 (nM), S1PR2 binding EC50. The procedure: The following assay can be used for determination of S1PR2 binding. The binding assay measures the potential to compete with radioactively labeled S1P for binding to the receptor.
The assay is performed in a96 well plate where the following reagents are added. First 50 μL compound is added into the assay plate, followed by addition of 100 μL ofa mixture consisting of membrane and Scintillation proximity Assay (SpA) beads [mixture consists […] membranes derived from stable cell line over expressing SPR2, 0.5 mg/well Polyvinyltoluene-Wheat Germ-Agglutinin (PVT-WGA) beads (Perkin Elmer, RPNQOO1)]. All components are diluted in assay buffer containing 20 mM Tris pH 7.5; 10 mM MgCl2; 100 mM NaCl; 0.4% BSA FAF; 1 mM Na3VO4) and incubated for 15 min until addition to the assay plate. Subsequently, 50 ul of radioactively labeled S1P is added to the wells (Sphingosine, D-erythro-[3-3H] 1-phosphate; ARC; ART0778). After an incubation for 2 h at room temperature, plates are centrifuged at 2000 rpm during 20 min. Plates are read on a Topcount reader (Perkin Elmer) immediately after centrifugation (readout time, 1 min/well).

Assay [2] has as its target T2, human GPCR sphingosine 1-phosphate receptor 2 (Homo sapiens, UniProt O95136).
T2 construct: host or cells: CHO
The assay can be described thus: S1PR2 antagonist Ca2+ flux assay. It is filed as cell-based. As to conditions: antagonist mode, CHO-S1PR2 cells, S1P at EC80, Ca2+ fluorescence; read-out: S1P2 EC50 (nM), S1P2 antagonist EC50. The protocol: Triggering of S1PR2 by administration of Sphingosine-1-phosphate leads to a transient increase in intracellular Ca^2+. The Ca^2+ flux assays are measuring the release of Ca^2+ intracellularly by use of a Ca^2+ sensitive fluorescent dye. The assay is firstly run in agonist mode (incubation of compounds alone) to ensure that the Ca^2+ released measured is not caused by the test compound having an agonistic effect. Then the assay is continued in antagonist mode (Sphingosine-1-Phosphate added to incubated medium containing the test compounds).
CHO cells stably overexpressing human GPCR sphingosine 1-phosphate receptor 2 (CHO-S1PR2 Perkin Elmer; ES-594-A) are seeded from a frozen stock in 384 wells sterile microplates (50 μL; 7,500 cells/well) and are incubated overnight at 37° C. and 5% CO2. The next day cells are washed twice with starvation medium (F-12 Ham's medium containing 0.1% BSA (Fatty acid free: FAF)) and left in 25 μL starvation medium for 1 h at 37° C., 5% CO2. After this starvation cells are incubated with 25 μL buffer containing the Ca^2+-sensitive fluorescent dye (0.5 mg Fluo8+125 mg Allura Red in 100 mL of 1% DMSO, in HBSS+20 mM Hepes+5 mM probenecid). The cells are incubated for an additional 1 h after which 10 μL compounds, diluted in HBSS buffer with 20 mM Hepes and 0.1% BSA (FAF), are added to the cells and intracellular Ca2+ changes are immediately measured by reading fluorescence during 3 min (FDSS/pCELL reader). The ratio of the maximal fluorescence over the background fluorescence before compound injection is used to determine compound response.
After readout of the agonist activity, the plates are incubated for 15 min at 37° C. and 5% CO2. Then, cells are stimulated with 10 μL Sphingosine-1-Phosphate (S1P) (Avanti Polar lipids-860492P) at its EC80 concentration. Intracellular Ca2+ changes are immediately measured by reading fluorescence during 3 min (FDSS/pCELL reader). The ratio of the maximal fluorescence over the background fluorescence before compound injection is used to determine compound response.
The obtained ratio's for agonist and antagonist readout were normalized versus vehicle and EC 100 of S1P ascontrols for agonist mode and versus vehicle and […]. From these normalized data EC50 of the compounds are derived.

What is called EC50 is the midpoint of the concentration-response curve.

T2 sequence (O95136 whole entry): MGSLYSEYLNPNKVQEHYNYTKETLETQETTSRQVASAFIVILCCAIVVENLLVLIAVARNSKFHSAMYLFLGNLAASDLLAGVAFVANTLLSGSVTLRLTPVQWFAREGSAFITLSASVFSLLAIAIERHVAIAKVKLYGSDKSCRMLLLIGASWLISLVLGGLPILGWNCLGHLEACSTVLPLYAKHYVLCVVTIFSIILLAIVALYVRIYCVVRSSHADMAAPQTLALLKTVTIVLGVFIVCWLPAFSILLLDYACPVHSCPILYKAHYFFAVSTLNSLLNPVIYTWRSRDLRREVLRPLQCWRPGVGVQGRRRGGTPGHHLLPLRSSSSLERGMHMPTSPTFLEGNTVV
T1 sequence (O95136 whole entry): as above

Take `CCOc1cc2nc(Cc3nn(CC(=O)O)c(=O)c4ccccc34)[nH]c2cc1F` [Compound 129, 2-[4-[(5-ethoxy-6-fluoro-1H-benzimidazol-2-yl)methyl]-1-oxo-phthalazin-2-yl]acetic acid]: the EC50 in assay [1] was found to be 1390 nM; in assay [2], 79.3 nM.
As to `O=C(O)Cn1nc(Cc2nc3cc(OCC(F)F)c(F)cc3[nH]2)c2ccccc2c1=O` [Compound 130, 2-[4-[[5-(2,2-difluoroethoxy)-6-fluoro-1H-benzimidazol-2-yl]methyl]-1-oxo-phthalazin-2-yl]acetic acid], the EC50 came to 2500 nM in assay [1] and 63.8 nM in assay [2].
The corresponding values for `CC(C)(C)NC(=O)Cn1nc(Cc2nc3cc(Cl)c(OC(F)(F)F)cc3[nH]2)c2c(c1=O)CCCC2` [Compound 147] are 1090 nM and 1380 nM.
The corresponding values for `N#Cc1cc2nc(Cc3nn(CC(=O)N4CCOCC45CCC5)c(=O)c4ccccc34)[nH]c2cc1OCC(F)F` [Compound 189, 6-(2,2-difluoroethoxy)-2-[[3-[2-(6-oxa-9-azaspiro[3.5]nonan-9-yl)-2-oxo-ethyl]-4-oxo-phthalazin-1-yl]methyl]-1H-benzimidazole-5-carbonitrile] are 558 nM and 143 nM.
For `CC(C)(C)C(O)CNC(=O)Cn1nc(Cc2nc3cc(OCC(F)F)c(C#N)cc3[nH]2)c2ccccc2c1=O` (stereo not shown) [Compound 222, 2-[4-[[6-cyano-5-(2,2-difluoroethoxy)-1H-benzimidazol-2-yl]methyl]-1-oxo-phthalazin-2-yl]-N-(2-hydroxy-3,3-dimethylbutyl)acetamide], the concentration giving a half-maximal response (EC50) is 137 nM in assay [1] and 26.1 nM in assay [2].
The corresponding values for `N#Cc1cc2[nH]c(Cc3nn(CC(=O)NCC(F)F)c(=O)c4ccccc34)nc2cc1OCC(F)F` [Compound 223, 2-[4-[[6-cyano-5-(2,2-difluoroethoxy)-1H-benzimidazol-2-yl]methyl]-1-oxo-phthalazin-2-yl]-N-(2,2-difluoroethyl)acetamide] are 330 nM and 68.8 nM.
For the compound `N#Cc1cc2[nH]c(Cc3nn(CC(=O)NCCC(F)(F)F)c(=O)c4ccccc34)nc2cc1OCC(F)F` [Compound 224, 2-[4-[[6-cyano-5-(2,2-difluoroethoxy)-1H-benzimidazol-2-yl]methyl]-1-oxo-phthalazin-2-yl]-N-(3,3,3-trifluoropropyl)acetamide], the EC50 in assay [1] stood at 232 nM; in assay [2] it was 19.6 nM.
The corresponding values for `N#Cc1cc2[nH]c(Cc3nn(CC(=O)NC(C#N)C4CC4)c(=O)c4ccccc34)nc2cc1OCC(F)F` (stereo not shown) [Compound 226, N-[cyano-(cyclopropyl)methyl]-2-[4-[[6-cyano-5-(2,2-difluoroethoxy)-1H-benzimidazol-2-yl]methyl]-1-oxo-phthalazin-2-yl]acetamide] are 552 nM and 66.2 nM.
As to `N#Cc1cc2[nH]c(Cc3nn(CC(=O)NCC(F)(F)CO)c(=O)c4ccccc34)nc2cc1OCC(F)F` [Compound 228, 2-[4-[[6-cyano-5-(2,2-difluoroethoxy)-1H-benzimidazol-2-yl]methyl]-1-oxo-phthalazin-2-yl]-N-(2,2-difluoro-3-hydroxypropyl)acetamide], the EC50 was determined as 52.5 nM in assay [1] and 21.1 nM in assay [2].
The corresponding values for `N#Cc1cc2[nH]c(Cc3nn(CC(=O)NCCS(N)(=O)=O)c(=O)c4ccccc34)nc2cc1OCC(F)F` [Compound 229, 2-[4-[[6-cyano-5-(2,2-difluoroethoxy)-1H-benzimidazol-2-yl]methyl]-1-oxo-phthalazin-2-yl]-N-(2-sulfamoylethyl)acetamide] are 503 nM and 120 nM.
The corresponding values for `N#Cc1cc2[nH]c(Cc3nn(CC(=O)NCC(F)(F)F)c(=O)c4ccccc34)nc2cc1OCC(F)F` [Compound 230, 2-[4-[[6-cyano-5-(2,2-difluoroethoxy)-1H-benzimidazol-2-yl)methyl]-1-oxo-phthalazin-2-yl]-N-(2,2,2-trifluoroethyl)acetamide] are 1950 nM and 408 nM.
As for `N#Cc1cc2[nH]c(Cc3nn(CC(=O)N4CCCC(O)C4)c(=O)c4ccccc34)nc2cc1OCC(F)F` (stereo not shown) [Compound 231, 6-(2,2-difluoroethoxy)-2-[[3-[2-(3-hydroxy-1-piperidyl)-2-oxo-ethyl]-4-oxo-phthalazin-1-yl]methyl]-3H-benzimidazole-5-carbonitrile], the results for the EC50 in assay [1] and in assay [2] were 453 nM and 77.9 nM, respectively.
The corresponding values for `N#Cc1cc2[nH]c(Cc3nn(CC(=O)NCC4CC(F)(F)C4)c(=O)c4ccccc34)nc2cc1OCC(F)F` [Compound 232, 2-[4-[[6-cyano-5-(2,2-difluoroethoxy)-1H-benzimidazol-2-yl]methyl]-1-oxo-phthalazin-2-yl]-N-[(3,3-difluorocyclobutyl)methyl]acetamide] are 122 nM and 16.3 nM.
Take `CN(C)C(=O)C1CCN(C(=O)Cn2nc(Cc3nc4cc(OCC(F)F)c(C#N)cc4[nH]3)c3ccccc3c2=O)CC1` [Compound 236, 1-[2-[4-[[6-cyano-5-(2,2-difluoroethoxy)-1H-benzimidazol-2-yl]methyl]-1-oxo-phthalazin-2-yl]acetyl]-N,N-dimethyl-piperidine-4-carboxamide]: the EC50 was found to be 2090 nM in assay [1] and 958 nM in assay [2].
As for `CC(C)(O)C1CCCN(C(=O)Cn2nc(Cc3nc4cc(OCC(F)F)c(C#N)cc4[nH]3)c3ccccc3c2=O)C1` (stereo not shown) [Compound 237, 6-(2,2-difluoroethoxy)-2-[[3-[2-[3-(1-hydroxy-1-methyl-ethyl)-1-piperidyl]-2-oxo-ethyl]-4-oxo-phthalazin-1-yl]methyl]-3H-benzimidazole-5-carbonitrile], the concentration giving a half-maximal response (EC50) in assay [1] amounted to 650 nM; in assay [2] it was 55.8 nM.
With `N#Cc1cc2[nH]c(Cc3nn(CC(=O)N4CC5(CCOCC5)C4)c(=O)c4ccccc34)nc2cc1OCC(F)F` [Compound 239, 6-(2,2-difluoroethoxy)-2-[[3-[2-(7-oxa-2-azaspiro[3.5]nonan-2-yl)-2-oxo-ethyl]-4-oxo-phthalazin-1-yl]methyl]-3H-benzimidazole-5-carbonitrile], the 50% effective concentration (EC50) worked out at 1740 nM in assay [1] and 781 nM in assay [2].
Turning to `CCS(=O)(=O)C1CCN(C(=O)Cn2nc(Cc3nc4cc(OCC(F)F)c(C#N)cc4[nH]3)c3ccccc3c2=O)CC1` [Compound 240, 6-(2,2-difluoroethoxy)-2-[[3-[2-(4-ethylsulfonyl-1-piperidyl)-2-oxo-ethyl]-4-oxo-phthalazin-1-yl]methyl]-3H-benzimidazole-5-carbonitrile], the values for the concentration giving a half-maximal response (EC50) in assay [1] and in assay [2] were 1300 nM and 345 nM, respectively.
For `CN(C)C(=O)CN(C)C(=O)Cn1nc(Cc2nc3cc(OCC(F)F)c(C#N)cc3[nH]2)c2ccccc2c1=O` [Compound 241, 2-[4-[[6-cyano-5-(2,2-difluoroethoxy)-1H-benzimidazol-2-yl]methyl]-1-oxo-phthalazin-2-yl]-N-[2-(dimethylamino)-2-oxo-ethyl]-N-methyl-acetamide], in that order: 372 nM and 47.2 nM.
The corresponding values for `CS(=O)(=O)NC(=O)Cn1nc(Cc2nc3cc(OCC(F)F)c(Cl)cc3[nH]2)c2cc(C#N)ccc2c1=O` [Compound 245, 2-[4-[[6-chloro-5-(2,2-difluoroethoxy)-1H-benzimidazol-2-yl]methyl]-6-cyano-1-oxo-phthalazin-2-yl]-N-methylsulfonyl-acetamide] are 609 nM and 14.3 nM.
The corresponding values for `CC(C(=O)NS(C)(=O)=O)n1nc(Cc2nc3cc(OCC4CC4)c(Cl)cc3[nH]2)c2ccccc2c1=O` (stereo not shown) [Compound 246, N-{2-[4-(6-Chloro-5-cyclopropylmethoxy-1H-benzoimidazol-2-ylmethvl)-1-oxo-1H-phthalazin-2-yl]-propionyl}-methanesulfonamide] are 775 nM and 13.6 nM.

(Values after US20210315893A1 (Galapagos NV, priority 2017, published 2021).)
